Laboratory results as given in PubChem BioAssay (NCI).
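Protocol summary: plate cells (96-well), add compound at 5 concentrations, incubate 48 h, interpolate endpoints linearly. TGI is the concentration that stops growth completely.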

Tests used:
Test in all cases: NCI tumour cell line growth inhibition, 48 h
HOP-62 NSCLC = tested on: HOP-62 NSCLC
MDA-MB-231 breast = tested on: MDA-MB-231 breast
MDA-N = tested on: MDA-N
OVCAR-3 ovarian = tested on: OVCAR-3 ovarian
SW-620 colon = tested on: SW-620 colon
NCI/ADR-RES ovarian = tested on: NCI/ADR-RES ovarian
HL-60(TB) leukemia = tested on: HL-60(TB) leukemia
NCI-H522 lung = tested on: NCI-H522 lung
SR leukemia = tested on: SR leukemia
HCT-116 colon = tested on: HCT-116 colon
NCI-H23 lung = tested on: NCI-H23 lung
SF-268 CNS = tested on: SF-268 CNS

Structure (SMILES)	TGI (HOP-62 NSCLC) [µM]	TGI (MDA-MB-231 breast) [µM]	TGI (MDA-N) [µM]	TGI (OVCAR-3 ovarian) [µM]	TGI (SW-620 colon) [µM]	TGI (NCI/ADR-RES ovarian) [µM]	TGI (HL-60(TB) leukemia) [µM]	TGI (NCI-H522 lung) [µM]	TGI (SR leukemia) [µM]	TGI (HCT-116 colon) [µM]	TGI (NCI-H23 lung) [µM]	TGI (SF-268 CNS) [µM]
O=c1[nH]c2c(c(=O)[nH]1)SSC2	23.5	5.15	3.17	38	29.9	8.76	32.6	38.5	2.09	13.8	26.9	13.6
CN(C)Cc1cc(N=Nc2ccc(Cl)cc2)ccc1OC(=O)c1ccccc1	26.5	28.6	30.1	32.3	30.5	45.4	43.7	26.5	31.8	29.9	34.4	59.9
CC1OC(OC2C(Oc3cc(O)c4c(c3)O[C@H](c3ccc(O)cc3)CC4=O)OC(CO)C(O)C2O)C(O)C(O)C1O (stereo partly specified)	> 100	> 100	> 100	> 100	> 100	> 100	> 100	> 100	> 100	> 100	> 100	> 100
